From ChEMBL document CHEMBL1124295, “Synthesis and oral antiallergic activity of carboxylic acids derived from imidazo[2,1-c][1,4]benzoxazines, imidazo[1,2-a]quinolines, imidazo[1,2-a]quinoxalines, imidazo[1,2-a]quinoxalinones, pyrrolo[1,2-a]quinoxalinones, pyrrolo[2,3-a]quinoxalinones, and imidazo[2,1-b]benzothiazoles” (1988)
Calls of active or inactive are those of the source. No cut-off for these calls is given here.

What was measured:
[1] = tested on: Rattus norvegicus; assay: Inhibition of the IgE-mediated passive cutaneous anaphylaxis (PCA) reaction in rat after intravenous administration; Inactive at 1 and 10 mg/kg; type: functional, organism-based; design: dose 10 mg/kg
[2] = tested on: Rattus norvegicus; assay: Inhibition of the IgE-mediated passive cutaneous anaphylaxis (PCA) reaction in rat after intravenous administration; Range 0.05-0.11; type: functional
[3] = tested on: Rattus norvegicus; assay: Inhibition of the IgE-mediated passive cutaneous anaphylaxis (PCA) reaction in rat after oral administration; NA means inactive 1 and 10 mg/kg; type: functional, organism-based; design: dose 10 mg/kg
[4] = tested on: Rattus norvegicus; assay: Inhibition of the IgE-mediated passive cutaneous anaphylaxis (PCA) reaction in rat after intravenous administration; NA means inactive at 1 and 10 mg/Kg; type: functional, organism-based
[5] = tested on: Rattus norvegicus; assay: Inhibition of the IgE-mediated passive cutaneous anaphylaxis (PCA) reaction in rat after oral administration; NA means inactive at 1 and 10 mg/Kg; type: functional, organism-based
[6] = tested on: Rattus norvegicus; assay: Inhibition of the IgE-mediated passive cutaneous anaphylaxis (PCA) reaction in rat after oral administration; NA means Inactive; type: functional, organism-based
[7] = tested on: Rattus norvegicus; assay: Inhibition of the IgE-mediated passive cutaneous anaphylaxis (PCA) reaction in rat after intravenous administration; Range 1.04-1.42; type: functional
[8] = tested on: Rattus norvegicus; assay: Inhibition of the IgE-mediated passive cutaneous anaphylaxis (PCA) reaction in rat after intravenous administration; Range 0.05-0.15; type: functional
[9] = tested on: Rattus norvegicus; assay: Inhibition of the IgE-mediated passive cutaneous anaphylaxis (PCA) reaction in rat after intravenous administration; Range 0.20-0.35; type: functional
[10] = tested on: Rattus norvegicus; assay: Inhibition of the IgE-mediated passive cutaneous anaphylaxis (PCA) reaction in rat after intravenous administration; Range 0.021-0.033; type: functional
[11] = tested on: Rattus norvegicus; assay: Inhibition of the IgE-mediated passive cutaneous anaphylaxis (PCA) reaction in rat after oral administration; Range 0.07-0.4; type: functional
[12] = tested on: Rattus norvegicus; assay: Inhibition of the IgE-mediated passive cutaneous anaphylaxis (PCA) reaction in rat after oral administration; Inactive at 10 mg/kg; type: functional, organism-based; design: dose 10 mg/kg
[13] = tested on: Rattus norvegicus; assay: Inhibition of the IgE-mediated passive cutaneous anaphylaxis (PCA) reaction in rat after oral administration; Range 0.4-2.34; type: functional
[14] = tested on: Rattus norvegicus; assay: Inhibition of the IgE-mediated passive cutaneous anaphylaxis (PCA) reaction in rat after intravenous administration; Inactive; type: functional, organism-based
[15] = tested on: Rattus norvegicus; assay: Inhibition of the IgE-mediated passive cutaneous anaphylaxis (PCA) reaction in rat after oral administration; Range 4.65-18.7; type: functional
[16] = tested on: Rattus norvegicus; assay: Inhibition of the IgE-mediated passive cutaneous anaphylaxis (PCA) reaction in rat after oral administration; Inactive(50% inhibition at 10 mg/kg); type: functional
[17] = tested on: Rattus norvegicus; assay: Inhibition of the IgE-mediated passive cutaneous anaphylaxis (PCA) reaction in rat after intravenous administration; Range 0.021-0.03; type: functional
[18] = tested on: Rattus norvegicus; assay: Inhibition of the IgE-mediated passive cutaneous anaphylaxis (PCA) reaction in rat after intravenous administration; Range 0.058-0.15; type: functional
[19] = tested on: Rattus norvegicus; assay: Inhibition of the IgE-mediated passive cutaneous anaphylaxis (PCA) reaction in rat after intravenous administration; NA means inactive; type: functional, organism-based
[20] = tested on: Rattus norvegicus; assay: Inhibition of the IgE-mediated passive cutaneous anaphylaxis (PCA) reaction in rat after intravenous administration; Range 0.18-0.41; type: functional
[21] = tested on: Rattus norvegicus; assay: Inhibition of the IgE-mediated passive cutaneous anaphylaxis (PCA) reaction in rat after oral administration; Range 0.025-0.282; type: functional
[22] = tested on: Rattus norvegicus; assay: Inhibition of the IgE-mediated passive cutaneous anaphylaxis (PCA) reaction in rat after intravenous administration; Range 0.005-0.033; type: functional
[23] = tested on: Rattus norvegicus; assay: Inhibition of the IgE-mediated passive cutaneous anaphylaxis (PCA) reaction in rat after intravenous administration; Range 0.04-0.154; type: functional
[24] = tested on: Rattus norvegicus; assay: Inhibition of the IgE-mediated passive cutaneous anaphylaxis (PCA) reaction in rat after oral administration; Range 0.026-0.31; type: functional
[25] = tested on: Rattus norvegicus; assay: Inhibition of the IgE-mediated passive cutaneous anaphylaxis (PCA) reaction in rat after intravenous administration; Range 0.91-3.86; type: functional
[26] = tested on: Rattus norvegicus; assay: Inhibition of the IgE-mediated passive cutaneous anaphylaxis (PCA) reaction in rat after oral administration; Range 4.38-21.4; type: functional
[27] = tested on: Rattus norvegicus; assay: Inhibition of the IgE-mediated passive cutaneous anaphylaxis (PCA) reaction in rat after oral administration; Inactive at 1 and 10 mg/kg; type: functional, organism-based; design: dose 10 mg/kg
[28] = tested on: Rattus norvegicus; assay: Inhibition of the IgE-mediated passive cutaneous anaphylaxis (PCA) reaction in rat after intravenous administration; Range 2.91-4.95; type: functional
[29] = tested on: Rattus norvegicus; assay: Inhibition of the IgE-mediated passive cutaneous anaphylaxis (PCA) reaction in rat after intravenous administration; Range 0.023-0.11; type: functional

## O=C(O)c1cc2ccc3ccccc3n2c1
[1]
  ED50: inactive

## CCn1c(=O)c2nc(CO)cn2c2ccccc21
[2]
  ED50: 0.071 mg/kg

## N#Cc1cn2c(n1)COc1ccccc1-2
[3]
  ED50: inactive

## O=C(O)c1cn2ccc3ccccc3c2n1
[4]
  ED50: inactive

## CCc1nc(C(=O)O)c2c(O)nc3ccccc3n12
[1]
  ED50: inactive

## O=C(O)c1cc2c(ccc3ccccc32)s1
[1]
  ED50: inactive

## c1ccc2c(c1)OCc1nc(-c3nn[nH]n3)cn1-2
[5]
  ED50: inactive

## O=C([O-])c1cc(=O)c2c(OCC(O)COc3cccc4oc(C(=O)[O-])cc(=O)c34)cccc2o1.[Na+].[Na+] [CROMOLYN SODIUM]
[6]
  ED50: inactive
[7]
  ED50: 1.21 mg/kg

## CCc1ccc2c(Cl)cc3nc(C(=O)O)cn3c2c1
[8]
  ED50: 0.09 mg/kg

## O=C(O)c1cn2c(ccc3cc([N+](=O)[O-])ccc32)n1
[9]
  ED50: 0.28 mg/kg

## COc1ccc2c(Cl)cc3nc(C(=O)O)cn3c2c1
[10]
  ED50: 0.027 mg/kg
[11]
  ED50: 0.34 mg/kg

## O=C(O)c1cn2c(n1)c(O)nc1cc(Cl)c(Cl)cc12
[12]
  ED50: inactive

## Cl.Cl.NCc1cn2c(ccc3ccccc32)n1
[13]
  ED50: 0.976 mg/kg

## O=C(O)c1cnc2n1-c1ccccc1OC2
[4]
  ED50: inactive

## CCOC(=O)c1cn2ccccc2n1
[1]
  ED50: inactive

## CCn1c(=O)c2c(C(=O)OC)c(C(=O)O)cn2c2ccccc21
[14]
  ED50: inactive

## CCOC(=O)c1cn2c(cc(Cl)c3ccc(OC)cc32)n1
[15]
  ED50: 8 mg/kg

## CS(=O)(=O)c1ccc2ccc3nc(C(=O)O)cn3c2c1
[16]
  inhibition in vivo at 10 mg/kg: 50%
[17]
  ED50: 0.028 mg/kg

## CSc1ccc2ccc3nc(C(=O)O)cn3c2c1
[18]
  ED50: 0.095 mg/kg

## COC(=O)c1nnn2c1c(=O)oc1ccccc12
[16]
  inhibition in vivo at 10 mg/kg: 50%

## O=C(O)c1cn2c(n1)c(CO)cc1ccccc12
[1]
  ED50: inactive

## O=C(O)c1cn2c(n1)c(-c1ccccc1)cc1ccccc12
[1]
  ED50: inactive

## CCn1c(=O)c2ccccc2n2cc(C(=O)O)nc12
[19]
  ED50: inactive

## C[S+](=N)([O-])c1ccc2ccc3nc(C(=O)O)cn3c2c1 (stereo unspecified)
[18]
  ED50: 0.095 mg/kg

## C[S+]([O-])c1cc2nc(C(=O)O)cn2c2ccccc12 (stereo unspecified)
[20]
  ED50: 0.29 mg/kg

## O=C(Cc1cn2c(n1)COc1ccccc1-2)Nc1nn[nH]n1
[4]
  ED50: inactive

## c1ccc2c(c1)ncc1nc(-c3nn[nH]n3)cn12
[21]
  ED50: 0.089 mg/kg
[22]
  ED50: 0.012 mg/kg

## O=C(O)c1nc2n(c1C(=O)N1CCOCC1)-c1ccccc1OC2
[4]
  ED50: inactive

## CCOC(=O)c1cn2c(n1)c(=O)n(Cc1ccccc1)c1ccccc12
[12]
  ED50: inactive

## O=C(O)c1cn2c(ccc3ccc(C(F)(F)F)cc32)n1
[23]
  ED50: 0.07 mg/kg

## O=Cc1cn2c(ccc3ccccc32)n1
[24]
  ED50: 0.093 mg/kg

## CC1Oc2ccccc2-n2cc(C(=O)O)nc21 (stereo unspecified)
[25]
  ED50: 1.76 mg/kg
[26]
  ED50: 8.46 mg/kg

## O=C(O)c1cn2c(cc(-c3ccccc3)c3ccccc32)n1
[27]
  ED50: inactive

## O=C(O)c1cn2c(ccc3c(Cl)cccc32)n1
[28]
  ED50: 3.74 mg/kg

## CSc1cc2nc(C(=O)O)cn2c2ccccc12
[29]
  ED50: 0.046 mg/kg

## COc1ccc2c(OC)cc3nc(C(=O)O)cn3c2c1
[27]
  ED50: inactive
